{"source": "patent US20140024653A1", "about": "“COMPOSITIONS AND METHODS FOR TREATING CANCER USING PI3K INHIBITOR AND MEK INHIBITOR” (priority 2011, published 2014)", "key": {"[1]": {"tested_on": "J82", "assay": "SRB cell growth assay, 72 h", "assay_type": "cell-based, human", "conditions": "single agent, up to 50 μM", "experimental": "(§1) Cell growth and treatment were performed in 96-well microtitre plates CELLSTAR® (Greiner Bio-One, Germany). Cells harvested from exponential phase cultures by trypsinization were plated in 150 μl of media at optimal seeding densities. The optimal seeding densities for each cell line were determined to ensure exponential growth for the duration of the experiment. All cells growing without anticancer agents were sub-confluent by the end of the treatment as determined by visual inspection.\n(§2) 150 μl of cells, after a 24-hour pre-growth period, were treated by mixing with 50 μl of the compound containing media (resulting in a final DMSO concentration of 0.1%). The cells were allowed to grow at 37° C. for 72 hours. In addition, all experiments contained a few plates with cells that were processed for measurement immediately after the 24 hours recovery period. These plates contained information about the cell number that existed before treatment, at time zero, and served to calculate the cytotoxicity.\n(§3) After treatment, cells were precipitated by addition of 10% TCA. Prior to fixation, the media was aspirated as described. After an hour of incubation at 4° C., the plates were washed two times with 400 μl of deionized water. Cells were then stained with 100 μl of a 0.08% wt/v SRB. The plates were allowed to sit for at least 30 min. and washed six times with 1% acetic acid to remove unbound stain. The plates were left to dry at room temperature and bound SRB was solubilized with 100 μl of 10 mM Tris base. Measurement of optical density was performed at 560 nm on a Victor 2 plate reader (Perkin Elmer, Germany). The SRB values for A375 and H460 cell lines were near to saturation (2.5 OD units) due to the high protein content of these cells, but not cell confluence. The measurements for these cells were performed at 520 nm instead of 560 nm.\n(§4) Using these measurements, cellular responses can be calculated for incomplete inhibition of cell growth (GI), complete inhibition of cell growth (T GI) and net loss of cells (LC) due to compound activity. […] This is the drug concentration causing a 50% reduction compared to the net protein increase in control cells during the drug incubation period. In other words, GI50 is IC50 corrected for time zero. Similar to IC90, calculated GI90 values are also reported for all compounds tested. TGI was calculated from Ti=Tz. […] It was calculated as 100×[(Ti−Tz)/Tz]=−50. However, due to 72 hours treatment, low cell seeding density was required and LC50 could rarely be achieved."}, "[2]": {"tested_on": "NCIH82", "assay": "SRB cell growth assay, 72 h", "assay_type": "cell-based, human", "conditions": "single agent, up to 50 μM", "experimental": "as §1, §2, §3, §4"}, "[3]": {"tested_on": "HT1080", "assay": "SRB cell growth assay, 72 h", "assay_type": "cell-based, human", "experimental": "as §1, §2, §3, §4"}, "[4]": {"tested_on": "PLCPRF5", "assay": "SRB cell growth assay, 72 h", "assay_type": "cell-based, human", "conditions": "single agent, up to 50 μM", "experimental": "as §1, §2, §3, §4"}, "[5]": {"tested_on": "HEK293", "assay": "SRB cell growth assay, 72 h", "assay_type": "cell-based, human", "conditions": "single agent, up to 50 μM", "experimental": "as §1, §2, §3, §4"}, "[6]": {"tested_on": "SF268", "assay": "SRB cell growth assay, 72 h", "assay_type": "cell-based, human", "conditions": "single agent, up to 50 μM", "experimental": "as §1, §2, §3, §4"}, "[7]": {"tested_on": "JEG3", "assay": "SRB cell growth assay, 72 h", "assay_type": "cell-based, human", "conditions": "single agent, up to 50 μM", "experimental": "as §1, §2, §3, §4"}, "[8]": {"tested_on": "JAR", "assay": "SRB cell growth assay, 72 h", "assay_type": "cell-based, human", "conditions": "single agent, up to 50 μM", "experimental": "as §1, §2, §3, §4"}, "[9]": {"tested_on": "human pancreatic MiaPaCa-2", "assay": "antitumor activity against subcutaneous MiaPaCa-2 xenografts", "assay_type": "in vivo, nude mice", "conditions": "21 days", "experimental": "The human pancreatic cancer cell line MiaPaCa-2 (American Type Culture Collection, Manassas Va.), was cultured in MEM medium containing 10% fetal bovine serum, 1% essential amino acid, 1% sodium pyruvate (Life Technologies, Carlsbad, Calif.). […] Cells were re-suspended in PBS (Life Technologies, Carlsbad, Calif.) and then mixed 1:1 with Matrigel (BD Biosciences, San Jose, Calif.). Cells were stored at 4° C. until implantation. MiaPaCa-2 cells (10×10^6 in a 200 μl PBS:Matrigel (1:1) suspension) were subcutaneously injected into the right flank area of female nude (Crl:NU-Foxn1nu) mice (6-8 weeks old, Charles River Laboratories, Wilmington, Mass.). All mice in this study were used according to the guidelines approved by the EMD-Serono Institutional Care and Animal Use Committee (IACUC), #07-003. Developing tumors located in the right flank area of female nude mice were measured over time with digital calipers. […] The remaining tumor-bearing mice were randomized into seven experimental groups (n=9), so that each group had the same mean tumor volume. […] The treatments began on the seventh day following implantation of the Miapaca-2 cells, which was designated as Day 0 for data evaluation purposes. […] Body weights and tumor volumes were assessed twice per week post treatment initiation. […] Efficacy was determined by analyzing tumor volumes and the percent ΔT/ΔC (% ΔT/ΔC). Tumor volume was determined by using the tumor length (1) and width (w) measurements and calculating the volume with the equation 1*w^2/2. The length was measured along the longest axis of the tumor and width was measured perpendicular to that length. The mean percent of actual tumor growth inhibited by the treatments was calculated as follows: [% ΔT/ΔC=(([…]))×100%], where TV=tumor volume, f=final, i=initial and Ctrl=control group. Tolerability was assessed by regarding percent body weight difference during the treatment period. Percent body weight difference was calculated as follows: [% Body weight difference=(BWc-BWi)/BWi×100%], where BW=body weight, c=current, i=initial."}, "[10]": {"tested_on": "resting Peripheral Blood Mononuclear Cells, PBMC", "assay": "SRB cell growth assay, 72 h, non-proliferating cells", "assay_type": "cell-based", "experimental": "Cell lines were selected to represent 17 different indications with many different genetic variations and biochemical characteristics. In addition, the study included resting Peripheral Blood Mononuclear Cells, PBMC, as a model for non-proliferating cells.\nas §1, with “inspection. […]” for “inspection.”\nAfter treatment, cells were precipitated by addition of 10% TCA. […] Measurement of optical density was performed at 560 nm on a Victor 2 plate reader (Perkin Elmer, Germany). […]\nUsing these measurements, cellular responses can be calculated for incomplete inhibition of cell growth (GI), complete inhibition of cell growth (T GI) and net loss of cells (LC) due to compound activity. […] Similar to IC90, calculated GI90 values are also reported for all compounds tested. TGI was calculated from Ti=Tz. […] It was calculated as 100×[(Ti−Tz)/Tz]=−50. […]"}, "[11]": {"tested_on": "human primary colon tumors CR-LRB-013P", "assay": "antitumor activity against subcutaneous CR-LRB-013P xenografts", "assay_type": "in vivo", "conditions": "for tolerability: as single agents or used in combination", "experimental": "The human primary colon carcinoma CR-LRB-013P tumor model was established by implanting (SC) small tumor fragments and was maintained in SCID female mice using serial passages.\nTreatments were administered on measurable tumors. […] Mice were checked daily, and adverse clinical reactions noted.\nAnimal body weights included the tumor weight.\nThe primary efficacy end points are ΔT/ΔC, percent median regression, partial and complete regressions (PR and CR). Statistical analyses were performed on SAS system release 8.2 for SUN4 via Everstat V5 software and SAS 9.2 software. A probability less than 5% (p<0.05) was considered as significant."}, "[12]": {"tested_on": "MCF7", "assay": "SRB cell growth assay, 72 h", "assay_type": "cell-based, human", "conditions": "for GI50: Homo sapiens"}, "[13]": {"tested_on": "human colon carcinoma HCT 116", "assay": "HCT116 tumor growth in fluorescence molecular tomography study", "assay_type": "in vivo, SCID mice", "conditions": "NS"}, "[14]": {"conditions": "(1) 20 mg/kg PO daily days 33-50"}, "[15]": {"conditions": "(2b) 20 mg/kg PO daily days 33-50"}}, "data": [{"smiles": "O=C(NC[C@H](O)CO)c1ccncc1Nc1ccc(I)cc1F", "note": "[Compound (1), N—((S)-2,3-dihydroxypropyl)-3-(2-fluoro-4-iodo-phenylamino)isonicotinamide]", "values": [{"measurement": "activity (cell growth inhibition)", "setting": "[1]", "result": "minimal activity"}, {"measurement": "activity (cell growth inhibition)", "setting": "[2]", "result": "minimal activity"}, {"measurement": "sensitivity", "setting": "[3]", "result": "very sensitive"}, {"measurement": "activity (cell growth inhibition)", "setting": "[4]", "result": "minimal activity"}, {"measurement": "activity (cell growth inhibition)", "setting": "[5]", "result": "minimal activity"}, {"measurement": "activity (cell growth inhibition)", "setting": "[6]", "result": "minimal activity"}, {"measurement": "activity (cell growth inhibition)", "setting": "[7]", "result": "minimal activity"}, {"measurement": "activity (cell growth inhibition)", "setting": "[8]", "result": "minimal activity"}, {"measurement": "% ΔT/ΔC", "setting": "[9]; AS703026 5 mg/kg po QD, 5 mg/kg", "result": 56.2, "unit": "%"}, {"measurement": "activity in resting (arrested) PBMC", "setting": "[10]", "result": "no activity"}, {"measurement": "Average body weight change in % per mouse at nadir", "setting": "[11]; [14]", "result": "−4.5 (50) %"}, {"measurement": "Drug death", "setting": "[11]; [14]", "result": "0/7"}, {"measurement": "Median ΔT/ΔC in % day 50", "setting": "[11]; [14]", "result": 30, "unit": "%"}, {"measurement": "Regressions Complete", "setting": "[11]; [14]", "result": "0/7"}, {"measurement": "Regressions Partial", "setting": "[11]; [14]", "result": "0/7"}, {"measurement": "tolerability", "setting": "[11]", "result": "tolerated, inducing some BWL but not reaching toxicity"}, {"measurement": "GI50", "setting": "[12]", "result": 150, "unit": "nM"}, {"measurement": "z-score MSC6369", "setting": "[12]; single agent", "result": "−0.33"}, {"measurement": "ΔT/ΔC at the end of study", "setting": "[13]; (1) 10 mg/kg oral daily day 11 to day 17", "result": 40, "unit": "%"}]}, {"smiles": "CCn1c(=O)c(-c2ccn[nH]2)cc2c(C)nc(N)nc21", "note": "[Compound (2b), 2-amino-8-ethyl-4-methyl-6-(1H-pyrazol-5-yl)pyrido[2,3-d]pyrimidin-7(8H)-one]", "values": [{"measurement": "% ΔT/ΔC", "setting": "[9]; XL-765 30 mg/kg po QD, 30 mg/kg", "result": 77.0, "unit": "%"}, {"measurement": "activity in resting (arrested) PBMC", "setting": "[10]", "result": "no activity"}, {"measurement": "Average body weight change in % per mouse at nadir", "setting": "[11]; [15]", "result": "−5.2 (50) %"}, {"measurement": "Drug death", "setting": "[11]; [15]", "result": "0/7"}, {"measurement": "Regressions Complete", "setting": "[11]; [15]", "result": "0/7"}, {"measurement": "Regressions Partial", "setting": "[11]; [15]", "result": "0/7"}, {"measurement": "tolerability", "setting": "[11]", "result": "tolerated, inducing some BWL but not reaching toxicity"}, {"measurement": "GI50", "setting": "[12]", "result": 1600, "unit": "nM"}, {"measurement": "z-score MSC0765", "setting": "[12]; single agent", "result": 0.30}, {"measurement": "ΔT/ΔC at the end of study", "setting": "[13]; (2b) 20 mg/kg oral daily day 11 to day 17", "result": 80, "unit": "%"}]}]}
